Laboratory results: US6462063B1, “C-proteinase inhibitors” (Fibrogen, Inc., priority 2000, dated 2002)

Molecular target: T1, recombinant human C-proteinase (Homo sapiens, UniProt P13497)
T1 sequence (P13497 121-986): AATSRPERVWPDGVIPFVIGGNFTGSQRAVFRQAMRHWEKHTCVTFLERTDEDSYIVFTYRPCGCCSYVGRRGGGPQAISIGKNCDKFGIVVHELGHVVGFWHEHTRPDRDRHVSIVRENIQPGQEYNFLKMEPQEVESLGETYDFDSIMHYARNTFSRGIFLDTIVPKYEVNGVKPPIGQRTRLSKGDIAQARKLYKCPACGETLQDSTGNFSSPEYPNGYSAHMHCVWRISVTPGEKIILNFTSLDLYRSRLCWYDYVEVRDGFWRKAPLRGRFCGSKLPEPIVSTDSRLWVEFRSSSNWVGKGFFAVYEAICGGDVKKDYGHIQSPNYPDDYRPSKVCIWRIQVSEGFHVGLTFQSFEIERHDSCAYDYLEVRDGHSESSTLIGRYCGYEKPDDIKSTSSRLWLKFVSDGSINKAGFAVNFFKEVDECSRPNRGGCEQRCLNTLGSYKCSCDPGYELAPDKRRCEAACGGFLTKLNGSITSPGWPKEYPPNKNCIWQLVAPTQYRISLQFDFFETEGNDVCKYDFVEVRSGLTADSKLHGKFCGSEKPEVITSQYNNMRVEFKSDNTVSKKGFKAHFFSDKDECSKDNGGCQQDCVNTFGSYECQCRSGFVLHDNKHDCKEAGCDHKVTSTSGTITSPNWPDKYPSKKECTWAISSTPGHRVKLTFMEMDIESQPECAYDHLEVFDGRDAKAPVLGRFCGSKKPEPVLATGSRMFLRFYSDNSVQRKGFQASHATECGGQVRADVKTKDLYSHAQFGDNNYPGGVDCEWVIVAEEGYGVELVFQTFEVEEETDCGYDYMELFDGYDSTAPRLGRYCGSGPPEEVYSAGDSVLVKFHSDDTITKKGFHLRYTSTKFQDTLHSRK
Test: C-Proteinase IC50 assay, fluorogenic peptide
Assay type: biochemical
Settings: 50 μM fluorogenic peptide, pH 7.6, 4 hours at 37° C., fluorescence, read-out: C-Proteinase Inhibitor IC50
Protocol: The following assay may be used to determine the level of activity and effect of the different compounds of the present invention on C-proteinase activity. […] The reaction proceeded for 4 hours at 37° C. and the fluorescence was measured using a Bio-Tek Fl-600.

Compound	IC50
O=C(CCCC1C(=O)N(C2CCCCC2)C(=O)N1Cc1ccccc1)NO (stereo not drawn) [Compound 107]	3330 nM
COc1ccc(O)c(CN2C(=O)N(C34CC5CC(CC(C5)C3)C4)C(=O)C2CCCC(=O)NO)c1 (stereo not drawn) [Compound 139]	260 nM
COc1ccccc1CN1C(=O)N(C23CC4CC(CC(C4)C2)C3)C(=O)C1CCCC(=O)NO (stereo not drawn) [Compound 163]	600 nM
COc1cccc(CN2C(=O)N(C34CC5CC(CC(C5)C3)C4)C(=O)C2CCCC(=O)NO)c1O (stereo not drawn) [Compound 168]	430 nM
O=C(CCCC1C(=O)N(C23CC4CC(CC(C4)C2)C3)C(=O)N1Cc1cccc2c1OCO2)NO (stereo not drawn) [Compound 179]	230 nM
O=C(CCCC1C(=O)N(C2CCCCC2)C(=O)N1Cc1ccccc1O)NO (stereo not drawn) [Compound 195]	1080 nM
O=C(CCCC1C(=O)N(C2CCCCC2)C(=O)N1Cc1cccc(O)c1)NO (stereo not drawn) [Compound 198]	1240 nM
O=C(CSCC1C(=O)N(C23CC4CC(CC(C4)C2)C3)C(=O)N1Cc1ccccn1)NO (stereo not drawn) [Compound 199]	290 nM

Continued, values first:

IC50	Compound
770 nM	O=C(CCCC1C(=O)N(C23CC4CC(CC(C4)C2)C3)C(=O)N1Cc1ccccc1)NO (stereo not drawn) [Compound 102]
290 nM	O=C(CCCC1C(=O)N(C23CC4CC(CC(C4)C2)C3)C(=O)N1CC1CCCCC1)NO (stereo not drawn) [Compound 127]
400 nM	O=C(CCCC1C(=O)N(C23CC4CC(CC(C4)C2)C3)C(=O)N1CC1CC2C=CC1C2)NO (stereo not drawn) [Compound 128]
430 nM	O=C(CCCC1C(=O)N(C23CC4CC(CC(C4)C2)C3)C(=O)N1CC1CC1)NO (stereo not drawn) [Compound 131]
59 nM	O=C(CCCC1C(=O)N(C23CC4CC(CC(C4)C2)C3)C(=O)N1Cc1cc(O)ccc1O)NO (stereo not drawn) [Compound 137]
270 nM	O=C(CCCC1C(=O)N(C23CC4CC(CC(C4)C2)C3)C(=O)N1Cc1ccccc1O)NO (stereo not drawn) [Compound 155]
140 nM	O=C(CCCC1C(=O)N(C23CC4CC(CC(C4)C2)C3)C(=O)N1Cc1cccc(O)c1)NO (stereo not drawn) [Compound 161]
210 nM	O=C(CCCC1C(=O)N(C23CC4CC(CC(C4)C2)C3)C(=O)N1Cc1ccccn1)NO (stereo not drawn) [Compound 174]
230 nM	O=C(CCCC1C(=O)N(C23CC4CC(CC(C4)C2)C3)C(=O)N1Cc1ccco1)NO (stereo not drawn) [Compound 176]
210 nM	O=C(CCCC1C(=O)N(C23CC4CC(CC(C4)C2)C3)C(=O)N1CC1=COCCC1)NO (stereo not drawn) [Compound 192]
